{
  "source": "patent US8299031B2",
  "about": "“Human semen enhancer of viral infection peptides (SEVI) and their use” (Viro Pharmaceuticals GmbH & Co. KG, priority 2006, dated 2012)",
  "key": {"HIV-1": {"tested_on": "HIV-1", "assay": "Preincubation of virus stock with SEVI and 50-fold dilution into cell culture", "type": "cell-based", "conditions": "diluted 50-fold", "method": "SEVI could bind to viral particles and increase their infectivity, or enhance the susceptibility of target cells to HIV-1 infection. To distinguish between these possibilities, we preincubated the virus stock with various concentrations of fibrilar PAP(248-286) for 5 min in a small volume and subsequently added the virus/SEVI mixture to the cell culture, thereby diluting it 50-fold. For comparison, SEVI was directly added to the cell culture and subsequently infected with the same viral dose. […] In relation to the final peptide concentration in the infected culture, viral infectivity was enhanced by 50-fold (FIG. 17A, right).\n(§1) FIG. 17. SEVI interacts with the HIV-1 particle and enhances its binding to the cell. A) Interaction of SEVI with HIV-1. SEVI was either preincubated with the virus stock in a small volume and subsequently added to the cells (□) or SEVI and the HIV-1 stocks were added separately to the cells (▪). The SEVI concentrations during incubation with the virus stocks are shown in the left panel and the concentrations relating to the total cell culture in the right panels. B) SEVI enhances binding of wildtype and Env-defective viral particles to the cells. u, uninfected cells. Data represent average values±s.d. (n=3)."}, "HIV-1 NL4-3 [1]": {"tested_on": "HIV-1 NL4-3", "type": "cell-based", "conditions": "for luciferase activities increased compared to control cells containing no SEVI: 50 μg/ml peptide; for effect on HIV-1 infection (luciferase activities relative to no peptide): peptides 5 mg/ml shaken 20 h 37 °C, CEMX174 5.25 M7, 30 pg p24 HIV-1 NL4-3, 20 hours", "method": "To analyze the effect of synthesized SEVI peptides on HIV infection, samples were resuspended in FBS free DMEM to yield a stock solution of 5 mg/ml and shacked for 20 h at 37° C. at 1400 rpm (rotations per minute) resulting in a turbid solution.\nAll peptides indicated in FIG. 7B were dissolved and incubated under the same conditions. […] In the presence of 50 μg/ml peptide, luciferase activities were increased about 30 fold compared to those from control cells containing no SEVI (FIG. 7A).\nFIG. 7. Several synthetic PAP fragments stimulate HIV-1 infection. A) Lyophilized peptides were resuspended in DMEM without FBS and incubated for 20 h at 37° C. at 1,400 rpm using a thermo mixer (Eppendorf). […] After 20 h virus infection was detected using the Luciferase assay reagent (Promega). […] B) Shown are the peptide sequences analyzed."}, "HIV-1 NL4-3 [2]": {"tested_on": "HIV-1 NL4-3", "assay": "HIV-1 infection rate of CEMX174 5.25 M7 cells (GFP UV microscopy and luciferase)", "type": "cell-based", "conditions": "CEMX174 5.25 M7, 0.3 ng p24, 2 days", "method": "The rate of virus infection was detected after 2 days by performing first UV microscopy (FIG. 10A) and thereafter by measuring luciferase activities of cell lysates of the same samples (FIG. 10B). […] After infection of control samples containing no peptide, 2.6% of the cells expressed GFP corresponding to luciferase activities of 44,457 RLU/s (FIG. 10). In the presence of 2 μg/ml SEVI the average infection rates were nearly doubled to 4.6% (66,327 RLU/s). At the highest concentration of 50 μg/ml more than 99% of the cells became infected by HIV-1. Median luciferase activities in those samples were 1,701,156 RLU/s, corresponding to a 38 fold increase of infection (1,701,156 RLU/s divided by 44,457 RLU/s of control cells).\nFIG. 10. […] The rate of virus infection was detected after 2 days by performing UV microscopy (A) or by measuring luciferase activity of cellular lysates (B). RLU/s: relative light units per second."}, "HIV-2 ROD10": {"tested_on": "HIV-2 ROD10", "type": "cell-based"}, "HIV-1 particles": {"tested_on": "HIV-1 particles", "assay": "Binding of viral particles to TZM-bl cells (cell-associated p24 ELISA)", "type": "cell-based", "conditions": "3 hs", "method": "To further assess how SEVI might enhance HIV-1 infection we incubated TZM-bl cells for 3 hs with viral particles in the presence or absence of fibrilar PAP(248-286). Thereafter, unbound virus was removed by extensive washing and the amount of cell-associated p24 antigen was determined by ELISA. SEVI increased binding of HIV-1 to the target cells up to 8-fold in a dose-dependent manner (FIG. 17B, left).\nas §1"}, "SIVagm-tan 1": {"tested_on": "SIVagm-tan 1", "type": "cell-based, SIV", "conditions": "TZM-bl"}, "SIVcpz-tan 1": {"tested_on": "SIVcpz-tan 1", "type": "cell-based, SIV", "conditions": "CEMX174 5.25 M7 cells"}, "SIVmac239": {"tested_on": "SIVmac239", "type": "cell-based, SIV", "conditions": "TZM-bl"}, "HIV-1 NL4-3 [3]": {"tested_on": "HIV-1 NL4-3", "assay": "HIV-1 replication in PBMC after low dose infection (p24 antigen ELISA)", "type": "cell-based", "conditions": "2 μg/ml SEVI"}, "TZM-bl cells": {"tested_on": "TZM-bl cells", "assay": "MTT cytotoxicity assay", "type": "cell-based", "conditions": "3 days, high concentrations of SEVI", "method": "The day after medium was replaced by 90 μl of fresh medium and SEVI [fibrilar […]] dilutions were added to a final volume of 100 μl. After 3 days 10 μl of a 5 mg/ml MTT (Sigma; # M2128) solution was added and cells were incubated for 4 h at 37° C. In living cells mitochondrial dehydrogenases […] the yellow MTT salt to blue formazan crystals (Schiff et al.; 1985). After dissolving the crystals in 1:1 Ethanol/DMSO, samples containing living cells appear blue whereas samples from dead cells are clear. Optical density (OD) was measured at 560/650 nm using a photometer (Molecular Devices).\nFIG. 9. SEVI has no effect in cell viability or endogenous LTR activity. […] After 3 days 10 μl of a 5 mg/ml MTT solution was added and cells were incubated for 4 h at 37° C. Thereafter formazan crystals were dissolved in 1:1 Ethanol/DMSO and OD was measured at 560/650 nm. […] B) Endogenous LTR activity: After 3 days incubation with peptides endogenous LTR activity was measured using the Gal Screen Kit. Shown are median β-galactosidase activities±SD derived from 6 samples. RLU/s: relative light units per second."}, "[4]": {"tested_on": "NL4-3 V3 recombinant viruses and molecular HIV-1 clones", "conditions": "for infection more efficient than control cells without peptide: 0.4 μg/ml SEVI"}, "[5]": {"tested_on": "HIV-1 NL4-3 (X4) and HIV-1 NL4-3 YU-2 (R5)", "assay": "Infection of TZM-bl cells with subinfectious virus doses (Gal Screen)", "type": "cell-based", "conditions": "2 μg/ml SEVI or more, 0.1 and 0.6 pg p24 of X4 and R5 tropic HIV, 3 days"}},
  "note": "Read-outs that look alike come from different tables or passages of the source. Ends that are not written are not given here.",
  "data": [
    {"sequence": "GIHKQKEKSRLQGGVLVNEILNHMKRATQIPSYKKLIMY (Synthetic fragment of the PAP protein) [PAP(248-286)]", "values": [
      {"measurement": "viral infectivity enhanced in relation to the final peptide concentration in the infected culture", "setting": "HIV-1; 5 min preincubation with virus stock", "value": 50, "unit": "fold"},
      {"measurement": "effect of diluting the HIV-1/SEVI mixture after preincubation", "setting": "HIV-1; 5 min preincubation", "value": "did not at all reduce the magnitude of SEVI-mediated infectivity enhancement"},
      {"measurement": "luciferase activities increased compared to control cells containing no SEVI", "setting": "HIV-1 NL4-3 [1]", "value": "about 30 fold"},
      {"measurement": "effect on HIV-1 infection (luciferase activities relative to no peptide)", "setting": "HIV-1 NL4-3 [1]", "value": "dose dependently enhanced HIV-1 infection"},
      {"measurement": "effect on NL4-3 infection", "setting": "HIV-1 NL4-3 [2]", "value": "dose dependently promoted NL4-3 infection"},
      {"measurement": "increase of viral infection", "setting": "HIV-2 ROD10; 50 μg/ml SEVI, TZM-bl infected with 2 μl of HIV-2", "value": "two orders of magnitude"},
      {"measurement": "effect on infection rates of HIV-2", "setting": "HIV-2 ROD10; TZM-bl", "value": "dose dependently enhanced infection rates"},
      {"measurement": "binding of HIV-1 particles lacking Env", "setting": "HIV-1 particles", "value": "enhanced binding of HIV-1 particles lacking Env"},
      {"measurement": "increase of binding of HIV-1 to the target cells (cell-associated p24)", "setting": "HIV-1 particles; wildtype HIV-1, dose-dependent", "value": "up to 8 fold"},
      {"measurement": "effect on SIVagm infection", "setting": "SIVagm-tan 1", "value": "favoured"},
      {"measurement": "effect on SIVcpz infection", "setting": "SIVcpz-tan 1", "value": "favoured"},
      {"measurement": "effect on SIVmac infection", "setting": "SIVmac239", "value": "favoured"},
      {"measurement": "virus replication (p24 antigen ELISA)", "setting": "HIV-1 NL4-3 [3]; PBMC infected with 1.2 and 0.12 pg", "value": "virus only replicated in samples containing SEVI"},
      {"measurement": "virus replication (p24 antigen ELISA)", "setting": "HIV-1 NL4-3 [3]; PBMC infected with 120 and 12 pg p24 antigen", "value": "replicated with faster kinetics and to higher levels than in control cells without peptide"}
    ]},
    {"sequence": "HKQKEKSRLQGGVLVNEILNHMKRATQIPSYKKLIMY [PAP(250-286)]", "values": [
      {"measurement": "cell viability (MTT)", "setting": "TZM-bl cells", "value": "not affected"}
    ]},
    {"sequence": "KEKSRLQGGVLVNEILNHMKRATQIPSYKKLIMY (Synthetic fragment of the PAP protein) [PAP(253-286)]", "values": [
      {"measurement": "infection more efficient than control cells without peptide", "setting": "[4]; 93br025-9", "value": 1.9, "unit": "fold"},
      {"measurement": "infection more efficient than control cells without peptide", "setting": "[4]; HIV-1 LAI", "value": 2.7, "unit": "fold"},
      {"measurement": "maximum infectivity compared to infected controls without peptide", "setting": "[4]; higher concentrations, P51-S", "value": "3,045%"},
      {"measurement": "luciferase activities increased compared to control cells containing no SEVI", "setting": "HIV-1 NL4-3 [1]", "value": "about 30 fold"},
      {"measurement": "effect on HIV-1 infection (luciferase activities relative to no peptide)", "setting": "HIV-1 NL4-3 [1]", "value": "dose dependently enhanced HIV-1 infection"},
      {"measurement": "effect on NL4-3 infection", "setting": "HIV-1 NL4-3 [2]", "value": "dose dependently promoted NL4-3 infection"}
    ]},
    {"sequence": "KQKEKSRLQGGVLVNEILNHMKRATQIPSYKKLIMY (Synthetic fragment of the PAP protein) [PAP(251-286)]", "values": [
      {"measurement": "luciferase activities increased compared to control cells containing no SEVI", "setting": "HIV-1 NL4-3 [1]", "value": "about 30 fold"},
      {"measurement": "effect on HIV-1 infection (luciferase activities relative to no peptide)", "setting": "HIV-1 NL4-3 [1]", "value": "dose dependently enhanced HIV-1 infection"},
      {"measurement": "effect on NL4-3 infection", "setting": "HIV-1 NL4-3 [2]", "value": "dose dependently promoted NL4-3 infection"},
      {"measurement": "detection of infection (β-galactosidase activities)", "setting": "[5]", "value": "readily detectable"}
    ]},
    {"sequence": "QKEKSRLQGGVLVNEILNHMKRATQIPSYKKLIMY (Synthetic fragment of the PAP protein) [PAP(252-286)]", "values": [
      {"measurement": "luciferase activities increased compared to control cells containing no SEVI", "setting": "HIV-1 NL4-3 [1]", "value": "about 30 fold"},
      {"measurement": "effect on HIV-1 infection (luciferase activities relative to no peptide)", "setting": "HIV-1 NL4-3 [1]", "value": "dose dependently enhanced HIV-1 infection"}
    ]}
  ]
}
